From US12466779B2, “Method for obtaining oleacein and oleomissional type secoiridoids and for producing respective pharmaceutical preparations” (OMPHAX SA, priority 2019, dated 2025)

Columns and labels:
MCF-7 cancer cells = experiment: cytotoxic activity on MCF-7 cancer cells; assay type: cell-based; settings: read-out: concentration leading to death of 50% of cells
water solubility = assay type: physicochemical; settings: in comparison with the aldehydic forms (1)
HeLa cancer cells = experiment: cytotoxic activity on HeLa cancer cells; assay type: cell-based; settings: read-out: concentration leading to death of 50% of cells
[1] = storage stability of solutions and syrups; assay type: physicochemical; settings: at room temperature; oleacein (1 g) in PEG200 or PEG 400 (5 ml)
Procedure: Dried olive leaves of Kalamata variety (10 kg) with 1% moisture are cut in the presence of water (100 L) at 25° C. and left in contact for 30 min. The mixture is filtered and the aqueous phase is obtained. The aqueous solution is extracted with dichloromethane (80 L) and the dichloromethane layer is obtained and evaporated under vacuum at 30° C. The residue (100 g) is made up of oleacein with a purity of 95%. The oleacein is mixed with water (10 L) under vigorous stirring for 30 min and transformed into a pure oleaceinediol solution. Alternatively, oleacein (1 g) is mixed with PEG200 or PEG 400 (5 ml) and converted into the stable polyethylene glycol hemiacetal. This solution is stable at room temperature for 12 months. This solution can be diluted to 100 ml with a saturated sugar solution affording a syrup containing 1% oleaceinediol, stable for 15-30 days with anti-inflammatory use.
Fresh olive leaves of Koroneiki variety (100 g) are left in contact with dichloromethane (500 g) at 25° C. for 30 min. The mixture is filtered and the organic phase is evaporated under vacuum. The residue is dissolved in deionized and distilled water at pH=6 (100 ml) under stirring for 24 hours, filtered and a solution of pure oleomissional is obtained. The solution is evaporated or lyophilized and oleomissional (160 mg) is obtained with a purity of >95%. […]

| water solubility with respect to substances (1), (2) (water solubility) | time stable [1] [months] | Substance | IC50 (MCF-7 cancer cells) [µM] | IC50 (HeLa cancer cells) [µM] |
| --- | --- | --- | --- | --- |
| greatly increased water solubility | – | 5S-(E)-oleaceinediol | 5 | 5 |
| greatly increased water solubility | – | 5S-(E)-oleomissionadiol | 50 | 50 |
| – | 12 | polyethylene glycol hemiacetal of oleacein | – | – |
